# pIC50: −log10 of the molar value.
# What was measured:
# [1] = system: classical subtype glioblastoma multiform (626T); experiment: cells; conditions: Homo sapiens, 72 h
# Description: (§1) Particularly, the cell growth inhibition effect was measured by WST-1 cell proliferation assay [http://www.roche-applied-science.com/PROD_INF/MANUALS/CELL_MAN/apoptosis—087—088.pdf]. The compound of formula 1 was loaded in a 384-well cell culture plate. Three types of glioblastoma multiform cell lines [proneural subtype (559T), mesenchymal subtype (592T), and classical subtype (626T)], normal human astrocytes (NHA), a lung cancer cell line (A549), and a glioblastoma multiform cell line (U87MG) were distributed in the plate at the density of 4.5×10^3 cells/well, and the medium was filled up to make 50 μl per well. At this time, the concentration of the solvent DMSO for the compound of formula 1 was no more than 0.2%. After culturing the cells for 72 hours, 5 mg/ml of WST-1 reagent was added by 5 μl per well, followed by reaction for 3˜4 hours. Then OD450 was measured to investigate the effect of the compound of formula 1 on cell proliferation.
# [2] = system: glioblastoma multiform cell line (U87MG); experiment: cells
# Description: as §1
# [3] = system: lung cancer cell line (A549); experiment: cells; conditions: Homo sapiens, A549, 72 h
# Description: as §1
# [4] = system: mesenchymal subtype glioblastoma multiform (592T); experiment: cells; conditions: Homo sapiens, 72 h
# Description: as §1
# [5] = system: GBM #2 glioblastoma multiform patient originated cells; experiment: Neurosphere formation inhibition, GBM #2; type: cell-based, human; parameters: key: S: strong effect; I: intermediate effect; R: rare effect; conditions: GBM #2, type A (proneural), Azathioprine 1 μM, duration 15 day
# Description: (§2) Particularly, to investigate neurosphere formation, glioblastoma multiform cells were cultured for a certain time and the cells were distributed again in culture vessels, followed by additional culture. Then, the number of newly generated neurospheres was measured. First, the glioblastoma multiform patient originated cells were sub-cultured, which were distributed in a 96-well plate (20, 50, and 200 cells in 50 μl of culture medium/well). […] Then, the compound of formula 1 (azathioprine) and the compound of Comparative Example 1 (Temodal) were added to 50 μl of cell culture medium with the same concentrations as the above once a week, which were then cultured for 7˜23 days. When neurosphere was formed at least 50 μm in the control group not treated with the compound, the number of neurospheres in each well was counted to compare the neurosphere formation before and after the treatment of the compound of formula 1 (azathioprine) and the compound of Comparative Example 1 (Temodal).
# (§3) The glioblastoma multiform cells used in this experiment were classified into 4 types, which are type A, type B, type C, and type D, according to the gene expression pattern. Methylation of MGMT (O6-me-G methyltransferase), the DNA repair protein, was confirmed in each cell line. […]
# [6] = system: GBM #4 glioblastoma multiform patient originated cells; experiment: Neurosphere formation inhibition, GBM #4; type: cell-based, human; parameters: key: S: strong effect; I: intermediate effect; R: rare effect; conditions: GBM #4, type B (classical), Azathioprine 1 μM, duration 9 day
# Description: as §2, §3
# [7] = system: GBM #5 glioblastoma multiform patient originated cells; experiment: Neurosphere formation inhibition, GBM #5; type: cell-based, human; parameters: key: S: strong effect; I: intermediate effect; R: rare effect; conditions: GBM #5, type B (classical), Azathioprine 1 μM, duration 21 day
# Description: as §2, §3
# [8] = system: GBM #7 glioblastoma multiform patient originated cells; experiment: Neurosphere formation inhibition, GBM #7; type: cell-based, human; parameters: key: S: strong effect; I: intermediate effect; R: rare effect; conditions: GBM #7, type B (classical), Azathioprine 1 μM, duration 23 day
# Description: (§4) Particularly, to investigate neurosphere formation, glioblastoma multiform cells were cultured for a certain time and the cells were distributed again in culture vessels, followed by additional culture. Then, the number of newly generated neurospheres was measured. First, the glioblastoma multiform patient originated cells were sub-cultured, which were distributed in a 96-well plate (20, 50, and 200 cells in 50 μl of culture medium/well). 2, 6, and 20 μM of the compound of formula 1 (azathioprine) and the compound of Comparative Example 1 (Temodal) were treated thereto by 50 μl per well to make the final concentrations of 1, 3, and 10 μM. Then, the compound of formula 1 (azathioprine) and the compound of Comparative Example 1 (Temodal) were added to 50 μl of cell culture medium with the same concentrations as the above once a week, which were then cultured for 7˜23 days. When neurosphere was formed at least 50 μm in the control group not treated with the compound, the number of neurospheres in each well was counted to compare the neurosphere formation before and after the treatment of the compound of formula 1 (azathioprine) and the compound of Comparative Example 1 (Temodal).
# (§5) The glioblastoma multiform cells used in this experiment were classified into 4 types, which are type A, type B, type C, and type D, according to the gene expression pattern. […]
# [9] = system: GBM #8 glioblastoma multiform patient originated cells; experiment: Neurosphere formation inhibition, GBM #8; type: cell-based, human; parameters: key: S: strong effect; I: intermediate effect; R: rare effect; conditions: GBM #8, type C (mesenchymal), Azathioprine 1 μM, duration 15 day
# Description: as §4, §5
# [10] = system: NCI-H23 Human lung adenocarcinoma; experiment: Secondary cytotoxicity test, NCI-H23; type: cell-based
# Description: as §1
# (§6) To investigate the cell growth inhibition effect of the compound of formula 1 of the present invention (azathioprine) in many different cell lines, secondary cytotoxicity test was performed with the cell lines listed in Table 5 by the same manner as described in Example 1.
# [11] = system: MCF-7 Human breast adenocarcinoma; experiment: Secondary cytotoxicity test, MCF-7; type: cell-based; conditions: MCF7
# Description: as §1, §6
# HaCat Human keratinocyte = experiment: Secondary cytotoxicity test, HaCat; type: cell-based
# Description: as §1, §6
# GBM (559T) cells = conditions: GBM (559T) cell lysate, azathioprine 10 μM, 24 hours later, compared with before the treatment
# [12] = read-out: Cell Growth Inhibition (% Inhibition)
# [13] = Homo sapiens, U-87 MG, 72 h, read-out: Cell Growth Inhibition (% Inhibition)
smiles,measurement,setting,value
"Cn1cnc([N+](=O)[O-])c1Sc1ncnc2nc[nH]c12 [Azathioprine, 6-(1-methyl-4-nitro-1H-imidazol-5-ylthio)-7H-purine]",GI50,[1],3.1 µM
same,inhibition at 0.032 µM,[1]; [12],20.2%
same,inhibition at 0.1 µM,[1]; [12],34.9%
same,inhibition at 0.32 µM,[1]; [12],30%
same,inhibition at 1 µM,[1]; [12],42.5%
same,inhibition at 3.2 µM,[1]; [12],61.8%
same,inhibition at 10 µM,[1]; [12],76.3%
same,GI50,"[2]; Homo sapiens, U-87 MG, 72 h",> 10 µM
same,inhibition at 0.032 µM,[2]; [13],3.2%
same,inhibition at 0.1 µM,[2]; [13],-9.9%
same,inhibition at 0.32 µM,[2]; [13],10.5%
same,inhibition at 1 µM,[2]; [13],6.5%
same,inhibition at 3.2 µM,[2]; [13],3.2%
same,inhibition at 10 µM,[2]; [13],-12.7%
same,cancer cell growth inhibition,"[2]; U87MG, WST-1, up to 10 μM",did not inhibit the cancer cell growth
same,GI50,[3],> 10 µM
same,inhibition at 0.032 µM,[3]; [12],6.7%
same,inhibition at 0.1 µM,[3]; [12],15.3%
same,inhibition at 0.32 µM,[3]; [12],21.5%
same,inhibition at 1 µM,[3]; [12],24.2%
same,inhibition at 3.2 µM,[3]; [12],26%
same,inhibition at 10 µM,[3]; [12],32%
same,GI50,[4],5.5 µM
same,inhibition at 0.032 µM,[4]; [12],-3.9%
same,inhibition at 0.1 µM,[4]; [12],2.1%
same,inhibition at 0.32 µM,[4]; [12],8.3%
same,inhibition at 1 µM,[4]; [12],22.6%
same,inhibition at 3.2 µM,[4]; [12],46%
same,inhibition at 10 µM,[4]; [12],57.2%
same,inhibition of neurosphere formation,[5],S
same,inhibition of neurosphere formation,[6],S
same,inhibition of neurosphere formation,[7],S
same,inhibition of neurosphere formation,[8],S
same,inhibition of neurosphere formation,[9],S
same,pIC50,[10],5.31
same,pIC50,[11],5.59
same,pIC50,HaCat Human keratinocyte,5.20
same,"concentrations of azathioprine metabolites (TGMP, MeTIMP, MeTGMP, TIMP) in cell lysate",GBM (559T) cells,significantly raised
